From ChEMBL document CHEMBL1817541, “Synthesis and Evaluation of the α-D-/α-L-Rhamnosyl and Amicetosyl Digitoxigenin Oligomers as Anti-tumor Agents” (ACS Med Chem Lett, 2011)
pIC50: −log10 of the molar value.

Key:
Type in all cases: functional
[1] = system: NCI-H460; experiment: Cytotoxicity against human NCI-H460 cells in serum free medium assessed as cell death at 10 uM after 12 hrs by Hoechst 33342/propidium iodide staining based fluorescence microscopy
[2] = system: NCI-H460; experiment: Induction of apoptosis in human NCI-H460 cells in at 50 nM after 12 hrs by Hoechst 33342/propidium iodide staining based fluorescence microscopy
[3] = system: NCI-H460; experiment: Cytotoxicity against human NCI-H460 cell assessed as cell death at 100 uM after 12 hrs by Hoechst 33342/propidium iodide staining based fluorescence microscopy
[4] = system: NCI-H460; experiment: Cytotoxicity against human NCI-H460 cell assessed as cell death at 10 nM after 12 hrs by Hoechst 33342/propidium iodide staining based fluorescence microscopy
[5] = system: NCI-H460; experiment: Cytotoxicity against human NCI-H460 cell assessed as cell death at 50 nM after 12 hrs by Hoechst 33342/propidium iodide staining based fluorescence microscopy
[6] = system: NCI-H460; experiment: Cytotoxicity against human NCI-H460 cell assessed as cell death at 1 uM after 12 hrs by Hoechst 33342/propidium iodide staining based fluorescence microscopy
[7] = system: NCI-H460; experiment: Cytotoxicity against human NCI-H460 cell assessed as cell death at 500 nM after 12 hrs by Hoechst 33342/propidium iodide staining based fluorescence microscopy
[8] = system: NCI-H460; experiment: Cytotoxicity against human NCI-H460 cell assessed as cell death at 100 nM after 12 hrs by Hoechst 33342/propidium iodide staining based fluorescence microscopy
[9] = system: NCI-H460; experiment: Cytotoxicity against human NCI-H460 cell assessed as cell death after 12 hrs by Hoechst 33342/propidium iodide staining based fluorescence microscopy; details: NCI-H460, 12 h

SMILES	Activity [1]	Activity [2]	Activity [3]	Activity [4]	Activity [5]	Activity [6]	Activity [7]	Activity [8]	pIC50 [9]
C[C@@H]1O[C@@H](O[C@H]2CC[C@@]3(C)[C@H](CC[C@@H]4[C@@H]3CC[C@]3(C)[C@@H](C5=CC(=O)OC5)CC[C@]43O)C2)[C@H](O)[C@H](O)[C@H]1O	100%	48.64%	100%	17.04%	60.56%	100%	100%	96.96%	
C[C@H]1O[C@H](O[C@H]2CC[C@@]3(C)[C@H](CC[C@@H]4[C@@H]3CC[C@]3(C)[C@@H](C5=CC(=O)OC5)CC[C@]43O)C2)CC[C@@H]1O[C@@H]1CC[C@H](O[C@@H]2CC[C@H](O)[C@@H](C)O2)[C@@H](C)O1	26.48%		53.1%	6.55%	7.85%	9.84%	9.11%	8.57%	4.48
C[C@@H]1O[C@@H](O[C@@H]2[C@@H](O)[C@@H](O)[C@H](O[C@H]3CC[C@@]4(C)[C@H](CC[C@@H]5[C@@H]4CC[C@]4(C)[C@@H](C6=CC(=O)OC6)CC[C@]54O)C3)O[C@H]2C)[C@H](O)[C@H](O)[C@H]1O	100%		100%	12.68%	16.8%	92.06%	62.95%	20.51%	6.44
C[C@@H]1O[C@@H](O[C@@H]2[C@@H](O)[C@@H](O)[C@H](O[C@@H]3[C@@H](O)[C@@H](O)[C@H](O[C@H]4CC[C@@]5(C)[C@H](CC[C@@H]6[C@@H]5CC[C@]5(C)[C@@H](C7=CC(=O)OC7)CC[C@]65O)C4)O[C@H]3C)O[C@H]2C)[C@H](O)[C@H](O)[C@H]1O	94.07%		100%	10.71%	12.17%	43.65%	38.97%	15.21%	5.87
C[C@@H]1O[C@@H](O[C@@H]2CC[C@H](O[C@H]3CC[C@@]4(C)[C@H](CC[C@@H]5[C@@H]4CC[C@]4(C)[C@@H](C6=CC(=O)OC6)CC[C@]54O)C3)O[C@H]2C)CC[C@H]1O	100%		100%	8.73%	14.89%	94.59%	53.76%	18.03%	6.29
C[C@@H]1O[C@@H](O[C@@H]2CC[C@H](O[C@@H]3CC[C@H](O[C@H]4CC[C@@]5(C)[C@H](CC[C@@H]6[C@@H]5CC[C@]5(C)[C@@H](C7=CC(=O)OC7)CC[C@]65O)C4)O[C@H]3C)O[C@H]2C)CC[C@H]1O	70.17%		91.74%	8.34%	10.85%	25.85%	16.46%	11.8%	5.40
C[C@H]1O[C@H](O[C@H]2CC[C@@]3(C)[C@H](CC[C@@H]4[C@@H]3CC[C@]3(C)[C@@H](C5=CC(=O)OC5)CC[C@]43O)C2)[C@@H](O)[C@@H](O)[C@@H]1O	95.72%	45.71%	100%	7.85%	12.14%	71.67%	35.05%	12.28%	6.15
C[C@H]1O[C@H](O[C@H]2[C@H](O)[C@H](O)[C@@H](O[C@H]3CC[C@@]4(C)[C@H](CC[C@@H]5[C@@H]4CC[C@]4(C)[C@@H](C6=CC(=O)OC6)CC[C@]54O)C3)O[C@@H]2C)[C@@H](O)[C@@H](O)[C@@H]1O	58.09%		73.4%	6.36%	7.37%	14.52%	11.06%	9.87%	5.37
C[C@H]1O[C@H](O[C@H]2[C@H](O)[C@H](O)[C@@H](O[C@H]3[C@H](O)[C@H](O)[C@@H](O[C@H]4CC[C@@]5(C)[C@H](CC[C@@H]6[C@@H]5CC[C@]5(C)[C@@H](C7=CC(=O)OC7)CC[C@]65O)C4)O[C@@H]3C)O[C@@H]2C)[C@@H](O)[C@@H](O)[C@@H]1O	28.42%		59.91%	6.44%	6.85%	8.37%	7.99%	7.17%	4.74
C[C@H]1O[C@H](O[C@H]2CC[C@@]3(C)[C@H](CC[C@@H]4[C@@H]3CC[C@]3(C)[C@@H](C5=CC(=O)OC5)CC[C@]43O)C2)CC[C@@H]1O[C@@H]1CC[C@H](O)[C@@H](C)O1	50.25%		71.1%	9.06%	10.01%	15.99%	12.91%	11.49%	5.22
